Source: publication PMC5939191 (Chemical Science, 2018)
Counter-ions that a name gives are not always drawn.

Assay: Apparent aqueous solubility by the dissolution method
Conditions: water; for solubility: 22 °C, thermodynamic from solid

Structure (SMILES)	solubility (unusually high)	solubility [mg/mL]
CCCC[N+]1(C)[C@@H]2C[C@@H](OC(=O)[C@H](CO)c3ccccc3)C[C@H]1[C@@H]1O[C@@H]12 (stereo partly drawn) [[Bs]Br, Butyl scopolammonium bromide]	more than one gram per milliliter	1800 ± 200
O=c1n(CCCN2CCN(c3cccc(Cl)c3)CC2)nc2ccccn12 [[TrH]Cl, Trazodone hydrochloride]		38.5 ± 0.2
